Experimental findings from publication PMC10609114, “Melittin-Related Peptides Interfere with Sandfly Fever Naples Virus Infection by Interacting with Heparan Sulphate” (Microorganisms, 2023) are described below.

Peptide text beside a SMILES is read from it.

Data set [1] relates to SFNV. Description: Antiviral virus pre-treatment assay (CPE, crystal violet). The data set is classed as cell-based, sandfly fever Naples virus. The settings on record: peptide incubated with SFNV 1 h at 37 °C, mixture titrated on Vero cells, CPE after 5 days; read-out: inhibitory concentration of 50% (IC50), virus pre-treatment. Here is the method:
(§1) To analyze whether peptides were endowed with antiviral activity against SFNV, and, specifically, what stage of the infection was affected, different experimental procedures were carried out: (i) co-treatment assay: the cells (5 × 10^5/mL) were incubated with each peptide (at non-cytotoxic concentrations) and infected with the virus (200 TCID50/mL) at the same time (1 h at 37 °C); (ii) virus pre-treatment assay: […] and the mixture was subsequently titrated on cells; (iii) cell pre-treatment assay: cells were previously incubated with the peptide and then infected (1 h at 37 °C); (iv) post-treatment assay: peptide was incubated with the cells after the viral adsorption step (1 h at 37 °C). Following the incubation, the cell monolayer was rinsed three times with medium and than supplemented with DMEM 5% FBS. After 5 days post-infection, cythopathic effect (CPE) was observed and cells were stained with 0.5% crystal violet. All experiments were performed in triplicate. The inhibition rate of the infectivity was evaluated by CPE observed in the wells treated with the peptides to CPE in positive control (cells infected with virus, without peptide).
(§2) The difference between the assays was the timing of incubation of peptides on the cell monolayer. […]

For a further data set, the system named is Vero cells. The data set is described as follows: Cytotoxicity assay (MTT). To be noted: 24 h at 37 °C, peptide 50 to 3.125 μM, triplicate. The data set is classed as cell-based. The method, then: Confluent Vero cells were treated with twofold serial dilutions of each peptide (50, 25, 12.5, 6.25, 3.125 μM). The 96-well plates were incubated at 37 °C/5% CO2 for 24 h; then, cell viability was analyzed by the 3-(4,5-Dimethylthiazol-2-yl)-2,5-Diphenyltetrazolium Bromide (MTT, Sigma-Aldrich, St. Louis, MO, USA) assay based on the reduction of the yellowish MTT to dark blue formazan salts. In brief, at the end of incubation, 100 μL of MTT solution (5 mg/mL) was incubated in each well for 3 h at 37 °C. Supernatant was removed and 100 μL of DMSO 100% (Sigma Aldrich) was added to dissolve formazan. Cytotoxicity was evaluated by spectrophotometric reading at 540 nm. Cell viability was calculated as a percentage of control cells. All experiments were performed in triplicate and means and standard deviations were reported. Nonlinear regression analysis was performed using GraphPad Prism software (version 8.0.1) to extract the CC50.
A preliminary experiment was carried out to evaluate the maximal non-cytotoxic concentration of RV-23 and AR-23. Twofold serial dilutions of each peptide were incubated with Vero cells for 24 h at 37 °C.
Figure 1 Cytotoxicity analysis after RV-23 and AR-23 treatment. Vero cells were treated with each peptide in the range of concentrations from 50 to 3.125 μM. After 24 h, MTT assay was carried out. Cell viability was calculated as a percentage of control cells. […]

The test system of data set [2] is SFNV. The data set is described as follows: Antiviral co-treatment assay (CPE, crystal violet). The data set is classed as cell-based, sandfly fever Naples virus. The settings on record: Vero cells, peptide and SFNV (200 TCID50/mL) added together 1 h at 37 °C, CPE after 5 days; read-out: inhibitory concentration of 50% (IC50), co-treatment. Here is the method: as §1, §2

The subject of data set [3] is SFNV. Description: Heparin assay: neutralization of SFNV infection by heparin. The data set is classed as cell-based, sandfly fever Naples virus. The settings on record: Vero cells, heparin 266.7 to 0.26 μM with SFNV (200 TCID50/mL) 1 h at 37 °C, CPE after 5 days. The method, then:
To analyze if heparin could neutralize the virus binding to cells, Vero were infected with SFNV (200 TCID50/mL) and simultaneously treated with serial heparin dilutions (1.56, […], 25, 100, 400, and 1600 μg/mL) for 1 h at 37 °C. Then, the cell monolayer was washed with medium and incubated in the presence of DMEM 5% FBS for 5 days until the CPE appeared. To analyze the simultaneous effect of heparin and each peptide against SFNV infection, a standard concentration of RV-23 or AR-23 (10 μM) was incubated together with the same above-mentioned heparin concentrations. At the same time, the virus (200 TCID50/mL) was added to cell monolayer and subsequently incubated for 1 h at 37 °C. The infection was observed after 5 days infection via CPE.
Phleboviruses use GAGs for the viral entry, including heparin and heparan sulphate (HS). […] Different concentrations of heparin were incubated with the virus during the adsorption phase, and after 5 days of infection, the CPE was analyzed (Figure 3A).
Figure 3 Heparin assay. […] Serial heparin concentrations were incubated with the virus and each peptide […] on Vero cells, and after 5 days of infection, CPE was analyzed by crystal violet staining. […]

In the case of `CC[C@H](C)[C@H](NC(=O)[C@H](C)N)C(=O)NCC(=O)N[C@@H](CO)C(=O)N[C@H](C(=O)N[C@@H](CC(C)C)C(=O)NCC(=O)N[C@@H](C)C(=O)N[C@@H](CC(C)C)C(=O)N[C@@H](C)C(=O)N[C@@H](CCCCN)C(=O)NCC(=O)N[C@@H](CC(C)C)C(=O)N1CCC[C@H]1C(=O)N[C@H](C(=O)N[C@@H](CC(C)C)C(=O)N[C@H](C(=O)N[C@@H](CO)C(=O)N[C@@H](Cc1c[nH]c2ccccc12)C(=O)N[C@H](C(=O)N[C@@H](CCCCN)C(=O)N[C@@H](CC(N)=O)C(=O)N[C@@H](CCCNC(=N)N)C(N)=O)[C@@H](C)CC)[C@@H](C)CC)[C@@H](C)O)[C@@H](C)CC` [AR-23] (H-AIGSILGALAKGLPTLISWIKNR-NH2), the IC50 worked out at 10 µM in the data set with SFNV [1] and 12.5 µM in the data set on SFNV [2]. In the data set on Vero cells, the “Cytotoxicity (cell viability) in words” value was “consistently affected cell viability at 50 μM”.
Taken in the same sequence, the figures for `CC[C@H](C)[C@H](NC(=O)[C@@H](N)CCCNC(=N)N)C(=O)NCC(=O)N[C@H](C(=O)N[C@@H](CC(C)C)C(=O)N[C@@H](CC(C)C)C(=O)N[C@@H](C)C(=O)N[C@@H](CCCNC(=N)N)C(=O)N[C@@H](CC(C)C)C(=O)N1CCC[C@H]1C(=O)N[C@@H](CCCCN)C(=O)N[C@@H](CC(C)C)C(=O)N[C@@H](Cc1ccccc1)C(=O)N[C@@H](CO)C(=O)N[C@@H](CC(C)C)C(=O)N[C@@H](Cc1ccccc1)C(=O)N[C@@H](CCCCN)C(=O)N[C@@H](CC(C)C)C(=O)N[C@@H](CCSC)C(=O)NCC(=O)N[C@@H](CCCCN)C(=O)N[C@@H](CCCCN)C(=O)N[C@H](C(N)=O)C(C)C)C(C)C` [RV-23] (H-RIGVLLARLPKLFSLFKLMGKKV-NH2) were 6.25 µM, 10 µM and “not cytotoxic up to the highest dose”.
Regarding heparin, the “Inhibition of SFNV infection by heparin” value with SFNV [3] is given as “strongly blocked the viral infection up to 4.2 μM”.
